Assay results as given in article PMC3433414, “Oral Administration of the Pimelic Diphenylamide HDAC Inhibitor HDACi 4b Is Unsuitable for Chronic Inhibition of HDAC Activity in the CNS In Vivo” (PLoS ONE, 2012).

Columns and labels:
[1] = dissolved upon heating; room temperature; cited from earlier work
R6/2 mice = details: cited from earlier work
[2] = system: histone acetylation in mouse brain; experiment: Histone acetylation in brain tissue (central pharmacodynamics); details: 200 mg/kg sc; positive control
Experimental: Cortical tissue from the mice was assessed using specific antibodies for increases in acetylation of specific lysine residues on Histones H3 (H3K4, H3K9, H3K14) and H4 (H4K5) as well as global acetylation of H3 (Ac-H3) and H4 (Ac-H4). The acetylation level was normalized to total H3 and H4 expression level. The samples from the rest of the brain were analyzed for terminal 4b levels at the time of sacrifice. […] Mouse brains were harvested, dissected, immediately frozen in liquid nitrogen and stored at −80°C. Mouse brain tissue was homogenized (polytron homogenizer, 20 s) in 2 volumes of histone extraction buffer (1×PBS, 5% Triton X-100 (v/v), 3 mM DTT, 1 mM orthovanadate, 5 mM NaF, 1 mM PMSF, 5 mM Na Butyrate, Roche complete protease inhibitor tablet) and centrifuged at 900 g for 8 min at 4°C. The resulting pellet was washed twice in 1 ml of histone extraction buffer before being re-suspended in 2–3 volumes of 0.2 M HCl. Samples were then vortexed briefly and left to shake vigorously for 3 h at 4°C using a VXR Vibrax 1.5 ml polypropylene tube shaker (IKA). After shaking, samples were centrifuged at 900 g for 8 min at 4°C and the resulting supernatant was retained and neutralized with 0.2 volumes of 1 M NaOH.

In the case of `O=C(CCCCCCC(=O)Nc1ccccc1)NO` [SAHA], the stability in cyclodextrins [1] is listed as “stable for seven days”, the “motor dysfunction (rotarod performance, grip strength)” value (R6/2 mice; drinking water) is listed as “significant improvement in motor dysfunction” and the maximum tolerated dose (R6/2 mice; in drinking water) is listed as 0.67 g/L. For the same compound, the “histone acetylation in cortical tissue” value [2] was “robust enhancement of acetylation of H3K9, H4K5, and total acetylated levels of H3 and H4”.
